Source: paper PMC11091879, “Inhibitors of the Thioesterase Activity of Mycobacterium tuberculosis Pks13 Discovered Using DNA-Encoded Chemical Library Screening” (ACS Infectious Diseases, 2024)
Values after ≈ are worked out from the molar mass of the structure shown. Where two headings read alike, the source gives them in different places.

How the values were obtained:
[1] = tested on: WT H37Rv; assay: microbe, parasite or virus in culture; type: cell-based, Mycobacterium tuberculosis; conditions: for MIC: Mycobacterium tuberculosis, H37RV
[2] = molecular target: Pks13-TE (Mycobacterium tuberculosis, UniProt I6X8D2); assay: biochemical; type: binding
[3] = tested on: pks13-TetON -ATc (hypomorph); type: cell-based, Mycobacterium tuberculosis
[4] = tested on: pks13-TetON +ATc (Pks13-hypermorph); type: cell-based, Mycobacterium tuberculosis

Pks13-TE, sequence (I6X8D2 1451-1733 limits assumed): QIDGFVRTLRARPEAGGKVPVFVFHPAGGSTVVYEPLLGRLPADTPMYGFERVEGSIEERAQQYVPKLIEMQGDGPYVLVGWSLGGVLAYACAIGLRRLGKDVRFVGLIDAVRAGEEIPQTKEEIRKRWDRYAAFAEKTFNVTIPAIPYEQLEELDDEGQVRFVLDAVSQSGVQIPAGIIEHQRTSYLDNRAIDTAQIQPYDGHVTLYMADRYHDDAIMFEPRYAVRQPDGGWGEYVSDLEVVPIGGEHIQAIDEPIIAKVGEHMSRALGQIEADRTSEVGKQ

Structure (SMILES): CN(C)C(=O)c1ccc(CCn2cc(-c3ccc(-c4ccccc4C(F)(F)F)nc3)nn2)cc1 [X21502]
- MIC ([1]; read-out: WT H37Rv MIC): > 125 µM
- IC50 ([2]; read-out: IC50): 0.59 µM

Structure (SMILES): COc1ccc(OC)c(-c2ccc(-c3cn(CCc4ccc5c(cnn5C)c4)nn3)cn2)c1 [X21543]
- Hypomorph MIC fold shift (WT/-ATc) [3]: 3.4 fold
- MIC ([1]; read-out: WT H37Rv MIC): 0.35 µM (≈ 0.154 µg/mL)
- Hypermorph MIC fold shift (+ATc/WT) [4]: 1.7 fold
- IC50 ([2]; read-out: IC50): 0.49 µM

Structure (SMILES): Cc1cc(CNC(=O)c2cc(C)nc(N3CCC(C(=O)N4CCN(C(=O)c5ccc6nc(C)ccc6c5)CC4)CC3)n2)cc(C)n1 [X22277]
- Hypomorph MIC fold shift (WT/-ATc) [3]: 2.6 fold
- MIC ([1]; read-out: WT H37Rv MIC): 0.54 µM (≈ 0.335 µg/mL)
- Hypermorph MIC fold shift (+ATc/WT) [4]: 1.8 fold
- IC50 ([2]; read-out: IC50): 0.53 µM

Structure (SMILES): COc1ccc(Cl)cc1-c1ccc(-c2cn(CCc3ccc(C(=O)N(C)C)cc3)nn2)cn1 [X21434]
- Hypomorph MIC fold shift (WT/-ATc) [3]: 2.4 fold
- MIC ([1]; read-out: WT H37Rv MIC (uM)): 1.1 µM (≈ 0.508 µg/mL)
- Hypermorph MIC fold shift (+ATc/WT) [4]: 5.4 fold
- IC50 ([2]; IC50 (uM)): 0.46 µM

Structure (SMILES): Cc1cc(C(=O)NCc2ccccc2)nc(N2CCC(C(=O)N3CCN(C(=O)c4ccc5nc(C)ccc5c4)CC3)CC2)n1 [X22275]
- Hypomorph MIC fold shift (WT/-ATc) [3]: 2.3 fold
- MIC ([1]; read-out: WT H37Rv MIC): 0.048 µM (≈ 0.0284 µg/mL)
- Hypermorph MIC fold shift (+ATc/WT) [4]: 2.7 fold
- IC50 ([2]; read-out: IC50): 0.62 µM

Structure (SMILES): Cc1cccc2cc(C(=O)N3CCN(C(=O)C4CCN(c5nccc(C(=O)NCc6ccccc6)n5)CC4)CC3)cnc12 [X21424]
- Hypomorph MIC fold shift (WT/-ATc) [3]: 3.0 fold
- MIC ([1]; read-out: WT H37Rv MIC (uM)): 2.6 µM (≈ 1.5 µg/mL)
- Hypermorph MIC fold shift (+ATc/WT) [4]: 5.8 fold
- IC50 ([2]; IC50 (uM)): 0.39 µM

Structure (SMILES): Cc1c(-c2cn(CCc3ccc(C(=O)N(C)C)cc3)nn2)cnn1-c1ccccc1F [X21774]
- MIC ([1]; read-out: WT H37Rv MIC): > 125 µM
- IC50 ([2]; read-out: IC50): > 10 µM

Structure (SMILES): Cc1cc(C(=O)NCc2ccccc2)nc(N2CCC(C(=O)N3CCN(C(=O)c4ccc(-n5nc(C)cc5C)nc4)CC3)CC2)n1 [X22239]
- Hypomorph MIC fold shift (WT/-ATc) [3]: 1.9 fold
- MIC ([1]; read-out: WT H37Rv MIC): 0.066 µM (≈ 0.041 µg/mL)
- Hypermorph MIC fold shift (+ATc/WT) [4]: 3.7 fold
- IC50 ([2]; read-out: IC50): 0.64 µM

Structure (SMILES): COc1ccc(OC)c(-c2ncc(-c3cn(CCc4ccc(C(=O)N(C)C)cc4)nn3)cn2)c1 [X21435]
- MIC ([1]; read-out: WT H37Rv MIC (uM)): > 125 µM
- IC50 ([2]; IC50 (uM)): 0.58 µM

Structure (SMILES): COc1ccc(OC)c(-c2ccc(-c3cn(CCc4ccc(S(=O)(=O)N(C)C)cc4)nn3)cn2)c1 [X21545]
- Hypomorph MIC fold shift (WT/-ATc) [3]: 3.2 fold
- MIC ([1]; read-out: WT H37Rv MIC): 1.3 µM (≈ 0.642 µg/mL)
- Hypermorph MIC fold shift (+ATc/WT) [4]: 2.8 fold
- IC50 ([2]; read-out: IC50): 0.53 µM

Structure (SMILES): COc1ccc(F)cc1-c1ccc(-c2cn(C3CN(c4ccc(C(=O)N(C)C)cc4)C3)nn2)cn1 [X23488]
- IC50 ([2]; read-out: IC50): 0.62 µM

Structure (SMILES): COc1ccn2nc(C(=O)N3CCN(C(=O)C4CCN(c5nc(C)cc(C(=O)N6CCCC6)n5)CC4)CC3)cc2c1 [X22276]
- MIC ([1]; read-out: WT H37Rv MIC): > 125 µM
- IC50 ([2]; read-out: IC50): > 10 µM

Structure (SMILES): COc1ccc(OC)c(-c2ccc(-c3cn(CCc4ccc5nn(C)cc5c4)nn3)cn2)c1 [X21544]
- Hypomorph MIC fold shift (WT/-ATc) [3]: 2.7 fold
- MIC ([1]; read-out: WT H37Rv MIC): 0.47 µM (≈ 0.207 µg/mL)
- Hypermorph MIC fold shift (+ATc/WT) [4]: 1.5 fold
- IC50 ([2]; read-out: IC50): 0.55 µM

Structure (SMILES): Cc1cc(C(=O)NCc2ccccc2)nc(N2CCC(C(=O)N3CCN(C(=O)c4cc5c(Cl)cccn5n4)CC3)CC2)n1 [X22324]
- Hypomorph MIC fold shift (WT/-ATc) [3]: 3.3 fold
- WT H37Rv MIC [1]: 0.22 µM
- Hypermorph MIC fold shift (+ATc/WT) [4]: 3.7 fold
- IC50 ([2]; read-out: IC50): 0.53 µM

Structure (SMILES): COc1ccc(OC)c(-c2ncc(-c3cn(CCc4ccc(C(=O)N(C)C)cc4)nn3)cc2C)c1 [X21499]
- Hypomorph MIC fold shift (WT/-ATc) [3]: 1.6 fold
- MIC ([1]; read-out: WT H37Rv MIC (uM)): 18 µM (≈ 8.49 µg/mL)
- IC50 ([2]; IC50 (uM)): 0.58 µM

Structure (SMILES): Cc1cc(C(=O)NCc2ccccc2)nc(N2CCC(CN3CCN(C(=O)c4cnc5c(C)cccc5c4)CC3)CC2)n1 [X21352]
- Hypomorph MIC fold shift (WT/-ATc) [3]: 1.7 fold
- MIC ([1]; read-out: WT H37Rv MIC (uM)): 5.2 µM (≈ 3 µg/mL)
- Hypermorph MIC fold shift (+ATc/WT) [4]: 6.1 fold
- IC50 ([2]; IC50 (uM)): 0.46 µM

Structure (SMILES): COc1ccc(OC)c(-c2ccc(-c3cn(C4CCN(c5ccc(C(=O)N(C)C)cc5)C4)nn3)cn2)c1 (stereo not shown) [X23546]
- IC50 ([2]; read-out: IC50): 0.65 µM

Structure (SMILES): CNC(=O)c1cc(C(C)C)nc(N2CCC(C(=O)N3CCN(C(=O)c4ccc(-n5nc(C)cc5C)nc4)CC3)CC2)n1 [X21426]
- Hypomorph MIC fold shift (WT/-ATc) [3]: 1.5 fold
- MIC ([1]; read-out: WT H37Rv MIC): 13 µM (≈ 7.46 µg/mL)
- Hypermorph MIC fold shift (+ATc/WT) [4]: 4.8 fold
- IC50 ([2]; read-out: IC50): 0.62 µM

Structure (SMILES): Cc1cc(C(=O)NCc2ccccc2)nc(N2CC(C(=O)N3CCN(C(=O)c4ccc5nc(C)ccc5c4)CC3)C2)n1 [X22327]
- Hypomorph MIC fold shift (WT/-ATc) [3]: 3.1 fold
- MIC ([1]; read-out: WT H37Rv MIC): 1.3 µM (≈ 0.733 µg/mL)
- Hypermorph MIC fold shift (+ATc/WT) [4]: 3.6 fold
- IC50 ([2]; read-out: IC50): 0.56 µM

Structure (SMILES): COc1ccn2nc(C(=O)N3CCN(C(=O)C4CCN(c5nc(C)cc(C(=O)NCc6ccccc6)n5)CC4)CC3)cc2c1 [X21411]
- Hypomorph MIC fold shift (WT/-ATc) [3]: 2.1 fold
- MIC ([1]; read-out: WT H37Rv MIC (uM)): 0.21 µM (≈ 0.125 µg/mL)
- Hypermorph MIC fold shift (+ATc/WT) [4]: 6.0 fold
- IC50 ([2]; IC50 (uM)): 0.48 µM

Structure (SMILES): COc1ccc(OC)c(-c2ccc(-n3cc(C4CN(c5ccc(C(=O)N(C)C)cc5)C4)nn3)cn2)c1 [X23436]
- IC50 ([2]; read-out: IC50): 0.37 µM

Structure (SMILES): Cc1cc(C(=O)NCc2ccccc2)nc(N2CCC(C(=O)N3CCN(C(=O)c4cnc5c(C)cccc5c4)CC3)CC2)n1 [X20377]
- Hypomorph MIC fold shift (WT/-ATc) [3]: 3.5 fold
- MIC ([1]; read-out: MIC (Mtb inhibition)): 0.21 µM (≈ 0.124 µg/mL)
- MIC ([1]; read-out: WT H37Rv MIC (uM)): 0.21 µM (≈ 0.124 µg/mL)
- Hypermorph MIC fold shift (+ATc/WT) [4]: 2.6 fold
- IC50 ([2]; IC50 (uM)): 0.85 µM

Structure (SMILES): Cc1cc(C(=O)NCc2ccccc2)nc(N2CCC(C(=O)N3CCN(C(=O)c4ccc5nc(C)sc5c4)CC3)CC2)n1 [X21408]
- Hypomorph MIC fold shift (WT/-ATc) [3]: 1.5 fold
- WT H37Rv MIC [1]: 0.10 µM
- Hypermorph MIC fold shift (+ATc/WT) [4]: 5.4 fold
- IC50 ([2]; read-out: IC50): 0.46 µM

Structure (SMILES): Cn1ncc2cc(CCn3cc(-c4ccc(OCc5ccccc5)nc4)nn3)ccc21 [X22346]
- WT H37Rv MIC [1]: > 125 µM
- IC50 ([2]; read-out: IC50): > 10 µM

Structure (SMILES): COc1ccc(OC)c(-c2ccc(-c3cn(CCc4ccc(-c5nccn5C)cc4)nn3)cn2)c1 [X21542]
- Hypomorph MIC fold shift (WT/-ATc) [3]: 1.9 fold
- MIC ([1]; read-out: WT H37Rv MIC): 0.17 µM (≈ 0.0793 µg/mL)
- Hypermorph MIC fold shift (+ATc/WT) [4]: 2.7 fold
- IC50 ([2]; read-out: IC50): 0.5 µM

Structure (SMILES): Cc1ccccc1-c1ncc(-c2cn(CCc3ccc(C(=O)N(C)C)cc3)nn2)s1 [X21546]
- Hypomorph MIC fold shift (WT/-ATc) [3]: 1.9 fold
- MIC ([1]; read-out: WT H37Rv MIC (uM)): 18 µM (≈ 7.52 µg/mL)
- IC50 ([2]; IC50 (uM)): 0.37 µM

Structure (SMILES): Cn1ncc2cc(CCn3cc(-c4ccc(-c5cc(C(F)(F)F)ccc5F)nc4)nn3)ccc21 [X22311]
- MIC ([1]; read-out: WT H37Rv MIC): > 125 µM
- IC50 ([2]; read-out: IC50): 0.77 µM

Structure (SMILES): COc1ccn2nc(C(=O)N3CCN(C(=O)C4CCN(c5nc(C)cc(C(F)(F)F)n5)CC4)CC3)cc2c1 [X22279]
- MIC ([1]; read-out: WT H37Rv MIC): > 125 µM
- IC50 ([2]; read-out: IC50): > 10 µM

Structure (SMILES): Cc1ccc(F)cc1-c1ccc(-c2cn(CCc3ccc4c(cnn4C)c3)nn2)cn1 [X22309]
- MIC ([1]; read-out: WT H37Rv MIC): > 125 µM
- IC50 ([2]; read-out: IC50): 0.62 µM

Structure (SMILES): COc1ccc(F)cc1-c1ccc(-c2cn(Cc3ccncc3)nn2)cn1 [X22307]
- WT H37Rv MIC [1]: > 125 µM
- IC50 ([2]; read-out: IC50): > 10 µM

Structure (SMILES): COc1ccc(OC)c(-c2ccc(-c3cn(C4CN(c5ccc6nn(C)cc6c5)C4)nn3)cn2)c1 [X23479]
- IC50 ([2]; read-out: IC50): 0.46 µM

Structure (SMILES): COc1ccc(OC)c(-n2ncc(-c3cn(CCc4ccc(C(=O)N(C)C)cc4)nn3)c2C)c1 [X21558]
- IC50 ([2]; read-out: IC50): > 20 µM

Structure (SMILES): COc1ccc(OC)c(-c2ccc(-c3nc(N(C)Cc4ccc(C(=O)N(C)C)cc4)no3)cn2)c1 [X21475]
- IC50 ([2]; read-out: IC50): > 20 µM

Structure (SMILES): CNC(=O)c1cc(C)nc(N2CCC(C(=O)N3CCCN(C(=O)c4cnn5ccc(OC)cc45)CC3)CC2)n1 [X22280]
- MIC ([1]; read-out: WT H37Rv MIC): > 125 µM
- IC50 ([2]; read-out: IC50): > 10 µM

Structure (SMILES): CCC(C)(C)c1ccc(S(=O)(=O)N[C@@H](Cc2ccccc2)[C@@H](O)Cc2nc(N(C)C)no2)cc1 [X20348]
- MIC ([1]; read-out: WT H37Rv MIC (uM)): > 250 µM
- IC50 ([2]; enzyme potency / IC50): 0.47 µM

Structure (SMILES): Cn1ncc2cc(CCn3cc(-c4ccc(N5CC(F)(F)C5)nc4)nn3)ccc21 [X22317]
- MIC ([1]; read-out: WT H37Rv MIC): > 125 µM
- IC50 ([2]; read-out: IC50): > 10 µM

Structure (SMILES): Cc1cccc2cc(-c3cn(CCc4ccc(C(=O)N(C)C)cc4)nn3)cnc12 [X21497]
- WT H37Rv MIC [1]: > 125 µM
- IC50 ([2]; read-out: IC50): > 10 µM
